Source: paper PMC8185074, “Anchor extension: a structure-guided approach to design cyclic peptides targeting enzyme active sites” (Nature Communications, 2021)
Peptide text beside a SMILES is read from it.

Experiments:
HDAC6 = molecular target: T1, HDAC6 (Homo sapiens, UniProt Q9UBN7); test: HDAC6 inhibition, full IC50 measurement (Reaction Biology; fluorogenic p53 peptide RHKK(Ac)AMC); assay type: biochemical
T1 construct: purchased Reaction Biology Corporation (assay run by the CRO)
T1 sequence (Q9UBN7 1-1215): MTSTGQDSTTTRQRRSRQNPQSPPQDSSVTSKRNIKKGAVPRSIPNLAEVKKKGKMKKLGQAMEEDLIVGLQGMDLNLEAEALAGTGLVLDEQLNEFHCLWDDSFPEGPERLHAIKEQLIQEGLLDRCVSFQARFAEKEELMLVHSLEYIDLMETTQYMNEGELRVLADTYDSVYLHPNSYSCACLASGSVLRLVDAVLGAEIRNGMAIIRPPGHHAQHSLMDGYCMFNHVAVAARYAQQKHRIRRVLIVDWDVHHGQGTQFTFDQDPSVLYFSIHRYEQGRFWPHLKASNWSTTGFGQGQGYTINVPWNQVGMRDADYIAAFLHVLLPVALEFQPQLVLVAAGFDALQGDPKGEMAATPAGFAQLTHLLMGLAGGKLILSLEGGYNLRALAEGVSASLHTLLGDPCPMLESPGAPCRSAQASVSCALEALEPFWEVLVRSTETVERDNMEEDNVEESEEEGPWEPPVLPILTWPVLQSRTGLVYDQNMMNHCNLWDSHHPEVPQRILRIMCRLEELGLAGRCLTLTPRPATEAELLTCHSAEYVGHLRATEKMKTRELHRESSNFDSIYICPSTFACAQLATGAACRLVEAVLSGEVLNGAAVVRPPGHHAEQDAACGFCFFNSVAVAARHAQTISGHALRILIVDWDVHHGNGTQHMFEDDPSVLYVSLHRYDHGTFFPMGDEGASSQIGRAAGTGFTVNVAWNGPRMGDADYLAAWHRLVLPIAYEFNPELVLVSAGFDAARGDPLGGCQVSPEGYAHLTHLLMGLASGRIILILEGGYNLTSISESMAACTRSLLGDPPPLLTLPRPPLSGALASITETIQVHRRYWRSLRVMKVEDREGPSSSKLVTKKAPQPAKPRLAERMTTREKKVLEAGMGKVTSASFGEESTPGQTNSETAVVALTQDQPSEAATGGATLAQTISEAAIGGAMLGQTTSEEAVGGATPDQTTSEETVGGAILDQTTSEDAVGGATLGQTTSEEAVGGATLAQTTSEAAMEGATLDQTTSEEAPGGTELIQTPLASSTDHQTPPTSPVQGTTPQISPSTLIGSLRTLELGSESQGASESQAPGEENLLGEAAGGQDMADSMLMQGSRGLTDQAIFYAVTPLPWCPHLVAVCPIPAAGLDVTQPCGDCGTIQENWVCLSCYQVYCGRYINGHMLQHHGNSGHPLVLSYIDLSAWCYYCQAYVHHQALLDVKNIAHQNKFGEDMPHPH
In short: (§1)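 Reaction: enzyme plus acoustically dispensed peptide inhibitor, 50 μM RHKK(Ac)AMC substrate, pH 8.0 Tris buffer with BSA and 1% DMSO, 1 h, 30 °C. Duplicates averaged.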

HDAC3 = molecular target: T2, HDAC3 (Homo sapiens, UniProt O15379); test: HDAC3 inhibition, full IC50 measurement (Reaction Biology; fluorogenic p53 peptide RHKK(Ac)AMC); assay type: biochemical
T2 construct: purchased Reaction Biology Corporation (assay run by the CRO)
T2 sequence (O15379 whole entry): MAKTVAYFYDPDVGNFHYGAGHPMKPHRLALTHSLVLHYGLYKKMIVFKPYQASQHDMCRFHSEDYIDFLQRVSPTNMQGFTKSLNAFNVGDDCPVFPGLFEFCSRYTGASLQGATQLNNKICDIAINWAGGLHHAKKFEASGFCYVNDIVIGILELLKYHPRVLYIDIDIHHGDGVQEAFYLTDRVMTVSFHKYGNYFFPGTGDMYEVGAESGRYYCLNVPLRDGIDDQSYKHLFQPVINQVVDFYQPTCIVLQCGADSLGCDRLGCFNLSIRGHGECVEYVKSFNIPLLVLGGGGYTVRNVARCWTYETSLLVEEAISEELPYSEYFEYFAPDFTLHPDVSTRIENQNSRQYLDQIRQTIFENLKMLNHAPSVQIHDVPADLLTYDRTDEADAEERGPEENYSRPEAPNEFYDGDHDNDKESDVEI
T2 sequence (Q9Y618 395-489 partner limits assumed): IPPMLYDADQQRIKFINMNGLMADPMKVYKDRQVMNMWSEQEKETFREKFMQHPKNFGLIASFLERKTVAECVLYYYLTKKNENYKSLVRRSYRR
In short: as §1

Structure (SMILES) | HDAC6 activity raw data (signal) (HDAC6; Conc. 1.00E-05 M, t1) | HDAC6 activity raw data (signal) (HDAC6; Conc. 1.00E-05 M, t2) | HDAC6 activity raw data (signal) (HDAC6; Conc. 1.11E-06 M, t1) | HDAC6 activity raw data (signal) (HDAC6; Conc. 1.11E-06 M, t2) | HDAC6 activity raw data (signal) (HDAC6; Conc. 1.23E-07 M, t1) | HDAC6 activity raw data (signal) (HDAC6; Conc. 1.23E-07 M, t2) | HDAC6 activity raw data (signal) (HDAC6; Conc. 1.37E-08 M, t1) | HDAC6 activity raw data (signal) (HDAC6; Conc. 1.37E-08 M, t2) | HDAC6 activity raw data (signal) (HDAC6; Conc. 1.52E-09 M, t1) | HDAC6 activity raw data (signal) (HDAC6; Conc. 1.52E-09 M, t2) | HDAC6 activity raw data (signal) (HDAC6; Conc. 3.33E-06 M, t1) | HDAC6 activity raw data (signal) (HDAC6; Conc. 3.33E-06 M, t2) | HDAC6 activity raw data (signal) (HDAC6; Conc. 3.70E-07 M, t1) | HDAC6 activity raw data (signal) (HDAC6; Conc. 3.70E-07 M, t2) | HDAC6 activity raw data (signal) (HDAC6; Conc. 4.12E-08 M, t1) | HDAC6 activity raw data (signal) (HDAC6; Conc. 4.12E-08 M, t2) | HDAC6 activity raw data (signal) (HDAC6; Conc. 4.57E-09 M, t1) | HDAC6 activity raw data (signal) (HDAC6; Conc. 4.57E-09 M, t2) | HDAC6 activity raw data (signal) (HDAC6; Conc. 5.08E-10 M, t1) | HDAC6 activity raw data (signal) (HDAC6; Conc. 5.08E-10 M, t2) | further results
N=C(N)NCCC[C@@H]1NC(=O)[C@H](Cc2c[nH]c3ccccc23)NC(=O)[C@H](CC(=O)O)NC(=O)[C@@H](CO)NC(=O)[C@H](Cc2c[nH]c3ccccc23)NC(=O)[C@H](CCCCCS)NC(=O)[C@H](CCC(N)=O)NC1=O [des4.1.0, SHA-Trp-dSer-Asp-Trp-Arg-Gln] (HELM PEPTIDE1{D.W.R.Q.[O=C([C@H](CCCCCS)N[*:1])[*:2]].W.[dS]}$PEPTIDE1,PEPTIDE1,1:R1-7:R2$$$V2.0) | 7877 | -8060 | 16871 | 12343 | 204372 | 163263 | 1871464 | 1633652 | 2518833 | 2655286 | 8242 | -3634 | 49535 | 45420 | 772837 | 534957 | 2466106 | 2168070 | 2603168 | 2401605 | HDAC3 activity raw data (signal) (HDAC3; Conc. 1.00E-05 M, t1): -1388; HDAC3 activity raw data (signal) (HDAC3; Conc. 1.00E-05 M, t2): 157; HDAC3 activity raw data (signal) (HDAC3; Conc. 1.11E-06 M, t1): 49544; HDAC3 activity raw data (signal) (HDAC3; Conc. 1.11E-06 M, t2): 53052; HDAC3 activity raw data (signal) (HDAC3; Conc. 1.23E-07 M, t1): 403506; HDAC3 activity raw data (signal) (HDAC3; Conc. 1.23E-07 M, t2): 392664; HDAC3 activity raw data (signal) (HDAC3; Conc. 1.37E-08 M, t1): 878874; HDAC3 activity raw data (signal) (HDAC3; Conc. 1.37E-08 M, t2): 905094; HDAC3 activity raw data (signal) (HDAC3; Conc. 1.52E-09 M, t1): 1051534; HDAC3 activity raw data (signal) (HDAC3; Conc. 1.52E-09 M, t2): 1009763; HDAC3 activity raw data (signal) (HDAC3; Conc. 3.33E-06 M, t1): 16525; HDAC3 activity raw data (signal) (HDAC3; Conc. 3.33E-06 M, t2): 4898; HDAC3 activity raw data (signal) (HDAC3; Conc. 3.70E-07 M, t1): 191695; HDAC3 activity raw data (signal) (HDAC3; Conc. 3.70E-07 M, t2): 162137; HDAC3 activity raw data (signal) (HDAC3; Conc. 4.12E-08 M, t1): 681441; HDAC3 activity raw data (signal) (HDAC3; Conc. 4.12E-08 M, t2): 656036; HDAC3 activity raw data (signal) (HDAC3; Conc. 4.57E-09 M, t1): 1007447; HDAC3 activity raw data (signal) (HDAC3; Conc. 4.57E-09 M, t2): 1022661; HDAC3 activity raw data (signal) (HDAC3; Conc. 5.08E-10 M, t1): 1094681; HDAC3 activity raw data (signal) (HDAC3; Conc. 5.08E-10 M, t2): 1129520
CSCC[C@H]1NC(=O)[C@@H](CO)NC(=O)[C@H](CC(N)=O)NC(=O)[C@H](CC(=O)O)NC(=O)[C@@H]([C@H](C)O)NC(=O)[C@H](Cc2c[nH]c3ccccc23)NC(=O)[C@H](CCCCCS)NC(=O)[C@H](CCCCN)NC(=O)[C@@H](CC(=O)O)NC1=O [des2.1.1, SHA-Trp-dThr-Asp-Asn-dSer-dMet-dAsp-Lys] (HELM PEPTIDE1{D.N.[dS].[dM].[dD].K.[O=C([C@H](CCCCCS)N[*:1])[*:2]].W.[dT]}$PEPTIDE1,PEPTIDE1,1:R1-9:R2$$$V2.0) | -77 | -1621 | 12750 | 10889 | 59972 | 56137 | 194975 | 185826 | 455139 | 435218 | 6654 | 2213 | 27729 | 16335 | 104749 | 101798 | 322592 | 306483 | 505663 | 482059 | HDAC3 activity raw data (signal) (HDAC3; Conc. 1.00E-05 M, t1): 7144; HDAC3 activity raw data (signal) (HDAC3; Conc. 1.00E-05 M, t2): 5841; HDAC3 activity raw data (signal) (HDAC3; Conc. 1.11E-06 M, t1): 51390; HDAC3 activity raw data (signal) (HDAC3; Conc. 1.11E-06 M, t2): 54678; HDAC3 activity raw data (signal) (HDAC3; Conc. 1.23E-07 M, t1): 246556; HDAC3 activity raw data (signal) (HDAC3; Conc. 1.23E-07 M, t2): 273031; HDAC3 activity raw data (signal) (HDAC3; Conc. 1.37E-08 M, t1): 687389; HDAC3 activity raw data (signal) (HDAC3; Conc. 1.37E-08 M, t2): 738917; HDAC3 activity raw data (signal) (HDAC3; Conc. 1.52E-09 M, t1): 1292643; HDAC3 activity raw data (signal) (HDAC3; Conc. 1.52E-09 M, t2): 1253696; HDAC3 activity raw data (signal) (HDAC3; Conc. 3.33E-06 M, t1): 22832; HDAC3 activity raw data (signal) (HDAC3; Conc. 3.33E-06 M, t2): 23560; HDAC3 activity raw data (signal) (HDAC3; Conc. 3.70E-07 M, t1): 127387; HDAC3 activity raw data (signal) (HDAC3; Conc. 3.70E-07 M, t2): 114572; HDAC3 activity raw data (signal) (HDAC3; Conc. 4.12E-08 M, t1): 487885; HDAC3 activity raw data (signal) (HDAC3; Conc. 4.12E-08 M, t2): 457810; HDAC3 activity raw data (signal) (HDAC3; Conc. 4.57E-09 M, t1): 1034207; HDAC3 activity raw data (signal) (HDAC3; Conc. 4.57E-09 M, t2): 1052923; HDAC3 activity raw data (signal) (HDAC3; Conc. 5.08E-10 M, t1): 1393662; HDAC3 activity raw data (signal) (HDAC3; Conc. 5.08E-10 M, t2): 1455609
